These results are taken from patent US20240308999A1 (priority 2021, published 2024).

In test [1] the test system is DAT / SERT. The following applies: 1/IC50 at DAT divided by 1/IC50 at SERT; uptake inhibition; cited from earlier work.
The test system of test [2] is DAT / SERT. The following applies: neurotransmitter release; cited from earlier work.
A further test concerns neuritogenesis. As to conditions: Ly et al. 2018, Figure S3, cited from earlier work.
For test [3] the following is noted: after 75 or 125 mg MDMA; standard deviation of 1.3 hours; cited from earlier work.
In test [4] the target is 5-Hydroxytryptamine (Serotonin) Receptor 1B (Homo sapiens, UniProt P28222). Description: 5-HTR1B activity assay (Agonist/Antagonist). It counts as cell-based.
Test [5] has as its target 5-Hydroxytryptamine (Serotonin) Receptor 2B (Homo sapiens, UniProt P41595). Description: 5-HTR2B activity assay (Agonist/Antagonist). It counts as cell-based.
For another test, the target named is T1, human DAT (Homo sapiens, UniProt Q01959).
T1 construct: expressed in transfected cells; host or cells: Chinese hamster ovary (CHO) cells
As to the kind of experiment: hDAT release assay ([3H]dopamine release). It is filed as cell-based.

The target of another test is T2, human SERT (Homo sapiens, UniProt P31645).
T2 construct: expressed in transfected cells; host or cells: Chinese hamster ovary (CHO) cells
As to the kind of experiment: hSERT release assay ([3H]serotonin release). It is filed as cell-based.

A further test concerns the target Dopamine transporter (Homo sapiens, UniProt Q01959). Description: DAT monoamine transporter uptake assay (Blocker).
For test [6], the target named is Norepinephrine transporter (Homo sapiens, UniProt P23975). Description: NET monoamine transporter uptake assay (Blocker).
For the next test, the system named is DAT / NET. As to conditions: neurotransmitter release; cited from earlier work.
The target of test [7] is Nicotinic acetylcholine Receptor α4 β2 (Homo sapiens, UniProt P17787+P43681). It is filed as cell-based. As to conditions: nACHR(a4/b2), Blocker mode; positive control; read-out: RC50 (Result Type IC50).
For test [8], the target named is Gamma-aminobutyric acid Receptor A. It counts as cell-based. As to conditions: GABAA, Blocker mode; positive control; read-out: RC50 (Result Type IC50).

T1 sequence (Q01959 whole entry): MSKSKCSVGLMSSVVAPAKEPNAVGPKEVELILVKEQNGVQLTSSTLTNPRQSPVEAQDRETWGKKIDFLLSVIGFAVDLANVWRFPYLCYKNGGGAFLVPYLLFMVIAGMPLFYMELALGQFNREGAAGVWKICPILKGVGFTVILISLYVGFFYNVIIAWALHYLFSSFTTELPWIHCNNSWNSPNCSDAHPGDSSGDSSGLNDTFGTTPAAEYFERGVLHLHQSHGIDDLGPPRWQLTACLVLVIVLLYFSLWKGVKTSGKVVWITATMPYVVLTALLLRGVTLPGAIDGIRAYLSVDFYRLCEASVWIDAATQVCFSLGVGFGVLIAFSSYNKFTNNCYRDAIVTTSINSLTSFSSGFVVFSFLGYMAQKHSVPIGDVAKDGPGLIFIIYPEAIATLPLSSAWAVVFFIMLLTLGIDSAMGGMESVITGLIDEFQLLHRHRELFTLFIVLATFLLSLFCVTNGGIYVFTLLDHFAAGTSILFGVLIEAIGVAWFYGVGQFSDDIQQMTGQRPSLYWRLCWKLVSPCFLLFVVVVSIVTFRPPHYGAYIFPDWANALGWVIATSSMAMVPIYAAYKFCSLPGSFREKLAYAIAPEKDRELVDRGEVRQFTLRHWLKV
Chain of Norepinephrine transporter (P23975 whole entry): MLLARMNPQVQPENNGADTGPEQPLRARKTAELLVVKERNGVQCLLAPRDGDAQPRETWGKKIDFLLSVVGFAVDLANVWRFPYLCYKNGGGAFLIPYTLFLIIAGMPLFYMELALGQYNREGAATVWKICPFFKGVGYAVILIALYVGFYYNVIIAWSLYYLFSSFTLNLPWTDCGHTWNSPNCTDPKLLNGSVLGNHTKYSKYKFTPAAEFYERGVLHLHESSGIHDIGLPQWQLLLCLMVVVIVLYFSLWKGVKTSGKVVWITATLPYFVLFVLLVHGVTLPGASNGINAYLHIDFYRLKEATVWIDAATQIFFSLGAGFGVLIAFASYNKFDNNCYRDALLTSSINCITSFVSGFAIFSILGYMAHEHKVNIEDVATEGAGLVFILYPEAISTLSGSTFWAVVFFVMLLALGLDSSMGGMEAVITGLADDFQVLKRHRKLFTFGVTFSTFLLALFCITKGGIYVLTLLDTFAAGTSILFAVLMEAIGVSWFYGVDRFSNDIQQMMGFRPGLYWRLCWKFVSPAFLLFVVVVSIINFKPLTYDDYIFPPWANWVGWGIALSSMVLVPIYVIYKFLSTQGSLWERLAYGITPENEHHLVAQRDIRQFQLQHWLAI
Chain of 5-Hydroxytryptamine (Serotonin) Receptor 2B (P41595 whole entry): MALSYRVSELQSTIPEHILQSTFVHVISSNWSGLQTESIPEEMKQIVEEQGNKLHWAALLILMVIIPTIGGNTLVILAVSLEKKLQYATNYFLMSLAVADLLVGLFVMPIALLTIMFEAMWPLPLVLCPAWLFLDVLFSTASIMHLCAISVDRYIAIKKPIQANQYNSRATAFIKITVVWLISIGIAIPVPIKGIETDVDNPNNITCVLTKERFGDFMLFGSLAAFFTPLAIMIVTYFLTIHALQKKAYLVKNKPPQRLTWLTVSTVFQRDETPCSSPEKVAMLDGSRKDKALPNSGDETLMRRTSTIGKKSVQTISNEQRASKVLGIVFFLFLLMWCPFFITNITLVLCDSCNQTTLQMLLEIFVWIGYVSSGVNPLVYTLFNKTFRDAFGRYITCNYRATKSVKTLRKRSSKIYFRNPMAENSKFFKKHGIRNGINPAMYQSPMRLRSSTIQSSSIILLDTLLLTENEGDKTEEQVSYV
Chain of Dopamine transporter (Q01959 whole entry): as the sequence (Q01959 whole entry) above
Chain of 5-Hydroxytryptamine (Serotonin) Receptor 1B (P28222 whole entry): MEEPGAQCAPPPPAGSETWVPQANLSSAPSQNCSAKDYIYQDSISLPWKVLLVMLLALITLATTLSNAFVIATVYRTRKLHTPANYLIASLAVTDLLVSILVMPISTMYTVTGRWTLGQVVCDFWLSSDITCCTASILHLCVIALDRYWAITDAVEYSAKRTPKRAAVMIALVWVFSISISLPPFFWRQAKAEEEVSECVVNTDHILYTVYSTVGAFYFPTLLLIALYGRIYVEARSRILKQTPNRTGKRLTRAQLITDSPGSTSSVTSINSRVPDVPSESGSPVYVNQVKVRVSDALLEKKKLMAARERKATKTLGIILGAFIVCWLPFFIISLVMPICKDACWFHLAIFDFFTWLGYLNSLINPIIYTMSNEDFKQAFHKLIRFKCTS
T2 sequence (P31645 whole entry): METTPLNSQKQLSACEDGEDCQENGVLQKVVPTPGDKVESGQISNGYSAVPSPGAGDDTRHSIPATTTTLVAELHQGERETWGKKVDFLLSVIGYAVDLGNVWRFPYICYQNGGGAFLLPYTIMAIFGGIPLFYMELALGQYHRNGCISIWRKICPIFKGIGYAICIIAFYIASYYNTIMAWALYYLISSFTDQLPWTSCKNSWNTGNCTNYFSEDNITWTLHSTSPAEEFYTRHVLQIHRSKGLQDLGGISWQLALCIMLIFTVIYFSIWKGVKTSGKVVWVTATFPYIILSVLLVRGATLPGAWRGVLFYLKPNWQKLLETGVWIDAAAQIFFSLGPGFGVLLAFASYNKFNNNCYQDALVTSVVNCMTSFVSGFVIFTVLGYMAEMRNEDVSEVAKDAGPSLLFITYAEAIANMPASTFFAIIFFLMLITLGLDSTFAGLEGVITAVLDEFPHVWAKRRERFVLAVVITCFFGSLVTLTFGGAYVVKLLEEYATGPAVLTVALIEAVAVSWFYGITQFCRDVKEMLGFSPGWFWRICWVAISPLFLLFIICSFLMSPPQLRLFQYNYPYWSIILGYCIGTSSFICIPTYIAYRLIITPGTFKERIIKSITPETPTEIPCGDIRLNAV
Chain of Nicotinic acetylcholine Receptor α4 β2 (P43681 29-627 limits assumed): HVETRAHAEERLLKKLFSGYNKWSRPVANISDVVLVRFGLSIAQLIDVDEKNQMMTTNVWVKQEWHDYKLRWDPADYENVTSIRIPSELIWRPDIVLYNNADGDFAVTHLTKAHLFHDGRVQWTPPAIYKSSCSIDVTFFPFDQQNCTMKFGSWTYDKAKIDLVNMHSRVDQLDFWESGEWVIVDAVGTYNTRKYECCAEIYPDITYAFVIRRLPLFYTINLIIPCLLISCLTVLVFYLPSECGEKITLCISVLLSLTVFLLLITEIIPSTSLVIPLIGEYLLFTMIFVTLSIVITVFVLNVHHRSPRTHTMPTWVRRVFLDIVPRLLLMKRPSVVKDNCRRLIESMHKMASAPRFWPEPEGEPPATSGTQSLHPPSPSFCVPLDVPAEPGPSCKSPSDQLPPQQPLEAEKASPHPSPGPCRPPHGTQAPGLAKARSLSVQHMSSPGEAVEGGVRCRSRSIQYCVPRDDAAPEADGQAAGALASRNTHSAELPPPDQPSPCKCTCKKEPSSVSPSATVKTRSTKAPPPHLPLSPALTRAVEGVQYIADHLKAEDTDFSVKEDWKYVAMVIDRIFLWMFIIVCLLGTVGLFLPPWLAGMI
Chain of Nicotinic acetylcholine Receptor α4 β2 (P17787 26-502): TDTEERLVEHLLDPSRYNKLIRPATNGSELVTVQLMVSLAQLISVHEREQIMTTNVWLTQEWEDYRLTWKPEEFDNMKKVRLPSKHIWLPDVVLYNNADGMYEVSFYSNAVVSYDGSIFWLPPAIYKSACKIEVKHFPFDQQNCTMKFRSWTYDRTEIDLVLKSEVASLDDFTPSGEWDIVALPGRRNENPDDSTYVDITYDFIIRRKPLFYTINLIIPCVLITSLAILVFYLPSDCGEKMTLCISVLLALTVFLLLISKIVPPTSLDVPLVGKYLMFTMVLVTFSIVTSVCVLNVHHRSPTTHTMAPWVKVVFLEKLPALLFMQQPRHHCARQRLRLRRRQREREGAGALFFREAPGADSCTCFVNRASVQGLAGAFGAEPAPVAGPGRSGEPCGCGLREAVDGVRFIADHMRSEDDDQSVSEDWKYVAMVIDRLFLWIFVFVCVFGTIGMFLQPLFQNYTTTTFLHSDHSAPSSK

Consider `CCNC(C)Cc1ccc2c(c1)OCO2` (stereo not drawn) [MDEA, [1-(2H-1,3-benzodioxol-5-yl)propan-2-yl](ethyl)amine], for which, in the test with DAT / SERT [1], the “DAT/SERT IC50 ratio” value is listed as 3.2. Further, the “DAT/SERT EC50 ratio” value with DAT / SERT [2] is on record as 0.76.

As to `CNC(C)Cc1ccc2c(c1)OCO2` (stereo not drawn) [MDMA], the “Emax for promoting neuritogenesis relative to ketamine” value in the test on neuritogenesis is “approximately twice that of ketamine”. Moreover, the EC50 in the test on neuritogenesis (read-out: EC50 for promoting neuritogenesis) was 7.41 nM. For the same molecule, in [3], the “Duration of acute therapeutic effects” value is 4.2 h. Besides, the “DAT/SERT IC50 ratio” value with DAT / SERT [1] is given as 0.08.

As for `CNC(C)C(=O)c1ccc2ccccn12` (stereo not drawn) [Structure XLX], the EC50 was 1130 nM in [4], 227 nM on human DAT and 109 nM at human SERT. The half-maximal inhibitory concentration (IC50) in [5] worked out at 2140 nM; against Dopamine transporter it was 2410 nM; in test [6], 5690 nM. For the same molecule, the “DAT/SERT ratio*” value on human DAT (calculated as (DAT EC50)^−1/(SERT EC50)^−1, larger numbers indicate higher DAT selectivity) is recorded as 2.1. Besides, the “Relative potency of release, DAT versus 5-HT” value at human DAT (hMAT release assays) was “more potent at releasing DAT than 5-HT”.

Regarding `C[C@H](N)Cc1ccccc1` [d-amphetamine, D-amphetamine], the “DAT/NET EC50 ratio” value with DAT / NET is recorded as 0.9.

On to `CN[C@@H](C)Cc1ccccc1` [d-methamphetamine], for which the “DAT/NET EC50 ratio” value with DAT / NET is 0.5.

In the case of Dihydro-AY-erythroidine, the IC50 in test [7] was 682 nM.

Consider Picrotoxin, for which, in [8], the IC50 is 2780 nM.

A word on the EC50: it is the concentration at which the effect is half-maximal. As usually defined, the IC50 is the concentration that inhibits the measured activity by half.
